Measured values: ChEMBL document CHEMBL1135136, “Carbonic anhydrase inhibitors. Preparation of potent sulfonamides inhibitors incorporating bile acid tails” (Bioorg Med Chem Lett, 2002)
pKi: −log10 of the molar value.

How the values were obtained:
Carbonic anhydrase 2 = Carbonic anhydrase 2 (Homo sapiens, UniProt P00918)
Description: Inhibitory activity against human recombinant carbonic anhydrase II (CA2)

Carbonic anhydrase 4 = molecular target: T1, Carbonic anhydrase 4 (Bos taurus, UniProt Q95323)
T1 sequence (Q95323 whole entry): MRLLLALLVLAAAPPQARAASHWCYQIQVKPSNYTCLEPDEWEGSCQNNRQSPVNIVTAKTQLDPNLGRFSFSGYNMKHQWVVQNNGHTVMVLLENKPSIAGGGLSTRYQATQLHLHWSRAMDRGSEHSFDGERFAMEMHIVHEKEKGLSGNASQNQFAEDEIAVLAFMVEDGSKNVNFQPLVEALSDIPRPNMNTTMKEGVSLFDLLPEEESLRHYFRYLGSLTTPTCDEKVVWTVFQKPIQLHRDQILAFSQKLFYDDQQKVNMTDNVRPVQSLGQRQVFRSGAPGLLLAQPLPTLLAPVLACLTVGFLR
Description: Inhibitory activity against bovine carbonic anhydrase IV (CA4), obtained from bovine lung microsomes

Carbonic anhydrase 1 = Carbonic anhydrase 1 (Homo sapiens, UniProt P00915)
Sequence of Carbonic anhydrase 1 (P00915 whole entry): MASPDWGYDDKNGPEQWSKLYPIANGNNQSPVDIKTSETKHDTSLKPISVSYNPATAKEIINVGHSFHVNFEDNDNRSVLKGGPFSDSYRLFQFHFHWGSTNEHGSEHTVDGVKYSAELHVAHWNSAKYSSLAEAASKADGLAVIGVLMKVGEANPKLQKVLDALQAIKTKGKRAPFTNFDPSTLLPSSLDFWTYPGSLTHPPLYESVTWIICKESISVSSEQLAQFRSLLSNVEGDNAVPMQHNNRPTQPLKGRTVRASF
Description: Inhibitory activity against human recombinant carbonic anhydrase I (CA1)

| Compound | pKi (Carbonic anhydrase 2) | pKi (Carbonic anhydrase 4) | pKi (Carbonic anhydrase 1) |
| --- | --- | --- | --- |
| C[C@H](CCC(=O)Oc1ccc2nc(S(N)(=O)=O)sc2c1)[C@H]1CC[C@H]2[C@@H]3[C@@H](O)C[C@@H]4C[C@H](O)CC[C@]4(C)[C@H]3CC[C@]12C | 9.15 | 8.22 | 7.51 |
| C[C@H](CCC(=O)Nc1ccc(S(N)(=O)=O)cc1Cl)[C@H]1CC[C@H]2[C@@H]3[C@H](O)C[C@@H]4C[C@H](O)CC[C@]4(C)[C@H]3C[C@H](O)[C@]12C | 7.09 | 6.77 | 6.01 |
| C[C@H](CCC(=O)Nc1nnc(S(N)(=O)=O)s1)[C@H]1CC[C@H]2[C@@H]3[C@@H](O)C[C@@H]4C[C@H](O)CC[C@]4(C)[C@H]3CC[C@]12C | 9.05 | 7.80 | 7.32 |
| C[C@H](CCC(=O)Nc1ccc(S(N)(=O)=O)cc1F)[C@H]1CC[C@H]2[C@@H]3C(=O)C[C@@H]4CC(=O)CC[C@]4(C)[C@H]3CC(=O)[C@]12C | 7.82 | 7.55 | 6.68 |
| C[C@H](CCC(=O)OCCOc1ccc2nc(S(N)(=O)=O)sc2c1)[C@H]1CC[C@H]2[C@@H]3[C@H](O)C[C@@H]4C[C@H](O)CC[C@]4(C)[C@H]3CC[C@]12C | 8.28 | 8.05 | 7.36 |
| C[C@H](CCC(=O)Nc1ccc(S(N)(=O)=O)cc1I)[C@H]1CC[C@H]2[C@@H]3[C@@H](O)C[C@@H]4C[C@H](O)CC[C@]4(C)[C@H]3CC[C@]12C | 7.89 | 7.70 | 7.17 |
| C[C@H](CCC(=O)OCCc1ccc(S(N)(=O)=O)cc1)[C@H]1CC[C@H]2[C@@H]3CC[C@@H]4C[C@H](O)CC[C@]4(C)[C@H]3CC[C@]12C | 7.09 | 6.51 | 6.20 |
| C[C@H](CCC(=O)Nc1ccc(S(N)(=O)=O)cc1F)[C@H]1CC[C@H]2[C@@H]3[C@H](O)C[C@@H]4C[C@H](O)CC[C@]4(C)[C@H]3C[C@H](O)[C@]12C | 7.30 | 6.88 | 5.89 |
| C[C@H](CCC(=O)Nc1c(S(N)(=O)=O)cc(S(N)(=O)=O)c(Cl)c1Cl)[C@H]1CC[C@H]2[C@@H]3CC[C@@H]4C[C@H](O)CC[C@]4(C)[C@H]3C[C@H](O)[C@]12C | 7.70 | 7.00 | 6.55 |
| C[C@H](CCC(=O)OCc1ccc(S(N)(=O)=O)cc1)[C@H]1CC[C@H]2[C@@H]3C(=O)C[C@@H]4CC(=O)CC[C@]4(C)[C@H]3CC(=O)[C@]12C | 7.15 | 6.70 | 6.35 |
| C[C@H](CCC(=O)Nc1cc(Cl)c(S(N)(=O)=O)cc1S(N)(=O)=O)[C@H]1CC[C@H]2[C@@H]3[C@@H](O)C[C@@H]4C[C@H](O)CC[C@]4(C)[C@H]3CC[C@]12C | 8.05 | 7.34 | 7.15 |
| C[C@H](CCC(=O)NNc1ccc(S(N)(=O)=O)cc1)[C@H]1CC[C@H]2[C@@H]3CC[C@@H]4C[C@H](O)CC[C@]4(C)[C@H]3C[C@H](O)[C@]12C | 6.51 | 6.04 | 4.67 |
| C[C@H](CCC(=O)Nc1cc(Cl)c(S(N)(=O)=O)cc1S(N)(=O)=O)[C@H]1CC[C@H]2[C@@H]3[C@H](O)C[C@@H]4C[C@H](O)CC[C@]4(C)[C@H]3C[C@H](O)[C@]12C | 7.25 | 6.89 | 6.40 |
| C[C@H](CCC(=O)Nc1c(S(N)(=O)=O)cc(S(N)(=O)=O)c(Cl)c1Cl)[C@H]1CC[C@H]2[C@@H]3[C@@H](O)C[C@@H]4C[C@H](O)CC[C@]4(C)[C@H]3CC[C@]12C | 8.00 | 7.54 | 7.23 |
| C[C@H](CCC(=O)OCCOc1ccc2nc(S(N)(=O)=O)sc2c1)[C@H]1CC[C@H]2[C@@H]3[C@@H](O)C[C@@H]4C[C@H](O)CC[C@]4(C)[C@H]3CC[C@]12C | 9.22 | 8.30 | 7.52 |
| C[C@H](CCC(=O)Nc1ccc(S(N)(=O)=O)cc1Cl)[C@H]1CC[C@H]2[C@@H]3C(=O)C[C@@H]4CC(=O)CC[C@]4(C)[C@H]3CC(=O)[C@]12C | 7.89 | 7.52 | 6.70 |
| C[C@H](CCC(=O)NNc1ccc(S(N)(=O)=O)cc1)[C@H]1CC[C@H]2[C@@H]3C(=O)C[C@@H]4CC(=O)CC[C@]4(C)[C@H]3CC(=O)[C@]12C | 6.59 | 6.26 | 4.89 |
| C[C@H](CCC(=O)NNc1ccc(S(N)(=O)=O)cc1)[C@H]1CC[C@H]2[C@@H]3[C@H](O)C[C@@H]4C[C@H](O)CC[C@]4(C)[C@H]3C[C@H](O)[C@]12C | 6.50 | 5.98 | 4.49 |
| C[C@H](CCC(=O)Nc1ccccc1S(N)(=O)=O)[C@H]1CC[C@H]2[C@@H]3[C@H](O)C[C@@H]4C[C@H](O)CC[C@]4(C)[C@H]3CC[C@]12C | 6.61 | 6.05 | 4.66 |
| C[C@H](CCC(=O)OCCc1ccc(S(N)(=O)=O)cc1)[C@H]1CC[C@H]2[C@@H]3C(=O)C[C@@H]4CC(=O)CC[C@]4(C)[C@H]3CC(=O)[C@]12C | 7.30 | 6.91 | 6.38 |
| C[C@H](CCC(=O)NCCC(=O)Nc1nnc(S(N)(=O)=O)s1)[C@H]1CC[C@H]2[C@@H]3CC[C@@H]4C[C@H](O)CC[C@]4(C)[C@H]3C[C@H](O)[C@]12C | 8.68 | 7.52 | 6.70 |
| C[C@H](CCC(=O)/N=c1\sc(S(N)(=O)=O)nn1C)[C@H]1CC[C@H]2[C@@H]3C(=O)C[C@@H]4CC(=O)CC[C@]4(C)[C@H]3CC(=O)[C@]12C | 9.00 | 8.10 | 7.54 |
| C[C@H](CCC(=O)Nc1ccc(S(N)(=O)=O)cc1Br)[C@H]1CC[C@H]2[C@@H]3CC[C@@H]4C[C@H](O)CC[C@]4(C)[C@H]3C[C@H](O)[C@]12C | 7.51 | 7.30 | 6.44 |
| C[C@H](CCC(=O)Nc1ccc2nc(S(N)(=O)=O)sc2c1)[C@H]1CC[C@H]2[C@@H]3C(=O)C[C@@H]4CC(=O)CC[C@]4(C)[C@H]3CC(=O)[C@]12C | 9.10 | 8.15 | 7.41 |
| C[C@H](CCC(=O)Nc1ccc(S(N)(=O)=O)cc1Cl)[C@H]1CC[C@H]2[C@@H]3CC[C@@H]4C[C@H](O)CC[C@]4(C)[C@H]3C[C@H](O)[C@]12C | 7.11 | 6.82 | 6.05 |
| C[C@H](CCC(=O)Nc1ccc(S(N)(=O)=O)cc1F)[C@H]1CC[C@H]2[C@@H]3CC[C@@H]4C[C@H](O)CC[C@]4(C)[C@H]3CC[C@]12C | 7.54 | 7.44 | 6.44 |
| C[C@H](CCC(=O)Nc1nnc(S(N)(=O)=O)s1)[C@H]1CC[C@H]2[C@@H]3[C@H](O)C[C@@H]4C[C@H](O)CC[C@]4(C)[C@H]3C[C@H](O)[C@]12C | 7.30 | 6.69 | 6.38 |
| C[C@H](CCC(=O)OCCOc1ccc2nc(S(N)(=O)=O)sc2c1)[C@H]1CC[C@H]2[C@@H]3CC[C@@H]4C[C@H](O)CC[C@]4(C)[C@H]3CC[C@]12C | 8.85 | 8.10 | 7.44 |
